Molecular target: T1, AAK1 (Homo sapiens, UniProt Q2M2I8)
T1 construct: HA; expressed in transfected cells; host or cells: HEK293F
Assay: HEK281 cell-based assay (phospho-mu2 Western blot in transfected HEK293F cells)
Settings: 3 hours incubation, read-out: CBA IC50
Outline: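 After 3 hours at 37° C. with compound (five 3-fold-spaced concentrations, DMEM+0.5% FBS), transiently transfected HEK293F cells expressing full-length human AAK1 and Flag-tagged mu2 were lysed. mu2 phosphorylation was read by anti-phospho-mu2 immunoblot, normalized against total mu2 by anti-Flag blot.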

T1 sequence (Q2M2I8 1-863 isoform Q2M2I8-2): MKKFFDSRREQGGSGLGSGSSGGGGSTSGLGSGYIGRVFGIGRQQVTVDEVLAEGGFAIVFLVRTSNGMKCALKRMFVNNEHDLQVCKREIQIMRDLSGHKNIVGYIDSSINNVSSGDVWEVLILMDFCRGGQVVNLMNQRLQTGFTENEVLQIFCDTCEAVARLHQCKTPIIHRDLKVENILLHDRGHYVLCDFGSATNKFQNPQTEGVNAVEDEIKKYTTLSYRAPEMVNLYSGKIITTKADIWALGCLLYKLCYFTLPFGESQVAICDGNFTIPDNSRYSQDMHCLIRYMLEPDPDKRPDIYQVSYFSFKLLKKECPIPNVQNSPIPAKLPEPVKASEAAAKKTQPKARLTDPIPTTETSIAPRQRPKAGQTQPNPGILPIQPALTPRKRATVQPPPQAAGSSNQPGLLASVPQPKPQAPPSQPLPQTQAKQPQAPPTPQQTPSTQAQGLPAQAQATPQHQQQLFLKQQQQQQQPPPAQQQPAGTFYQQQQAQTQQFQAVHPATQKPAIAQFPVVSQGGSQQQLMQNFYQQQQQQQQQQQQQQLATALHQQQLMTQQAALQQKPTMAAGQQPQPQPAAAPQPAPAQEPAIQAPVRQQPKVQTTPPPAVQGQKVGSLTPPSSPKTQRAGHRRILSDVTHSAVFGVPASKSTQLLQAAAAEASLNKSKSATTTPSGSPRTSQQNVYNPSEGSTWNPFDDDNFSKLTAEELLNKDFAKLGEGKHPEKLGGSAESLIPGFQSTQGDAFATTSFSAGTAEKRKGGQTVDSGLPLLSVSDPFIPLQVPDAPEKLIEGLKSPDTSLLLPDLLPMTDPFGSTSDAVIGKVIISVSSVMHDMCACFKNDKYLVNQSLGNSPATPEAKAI

Compound | IC50
CC(C)OC(=O)N(C)CCNc1ccc2ncc(-c3ccc([C@@H]4CCCN4)cc3)n2n1 [(S)-isopropyl methyl(2-((3-(4-(pyrrolidin-2-yl)phenyl)imidazo[1,2-b]pyridazin-6-yl)amino)ethyl)carbamate] | ≤ 100 nM
COc1cnccc1-c1cnc2ccc(NC[C@@H]3CCCCN3C(=O)OC(C)(C)C)nn12 [(S)-tert-butyl 2-(((3-(3-methoxypyridin-4-yl)imidazo[1,2-b]pyridazin-6-yl)amino)methyl)piperidine-1-carboxylate] | ≤ 100 nM
COc1cnccc1-c1cnc2ccc(NC[C@@H]3CCN(C(=O)OC(C)(C)C)C3)nn12 [(S)-tert-butyl 3-(((3-(3-methoxypyridin-4-yl)imidazo[1,2-b]pyridazin-6-yl)amino)methyl)pyrrolidine-1-carboxylate] | ≤ 1000 nM
CC(C)(C)OC(=O)N1CC[C@@H](CNc2ccc3ncc(-c4ccc(CN)cc4)n3n2)C1 [(S)-tert-butyl 3-(((3-(4-(aminomethyl)phenyl)imidazo[1,2-b]pyridazin-6-yl)amino)methyl)pyrrolidine-1-carboxylate] | ≤ 100 nM
CC(C)(C)OC(=O)N1CC[C@@H](CNc2ccc3ncc(Br)n3n2)C1 [(S)-tert-butyl 3-(((3-bromoimidazo[1,2-b]pyridazin-6-yl)amino)methyl)pyrrolidine-1-carboxylate] | ≤ 1000 nM
CCCCNc1ccc2ncc(-c3ccc4cnccc4c3)n2n1 [Butyl-(3-isoquinolin-6-yl-imidazo[1,2-b]pyridazin-6-yl)amine] | ≤ 100 nM
CCOC(=O)CCCNc1ccc2ncc(-c3ccc(C(C)=O)s3)n2n1 [Ethyl 4-((3-(5-acetylthiophen-2-yl)imidazo[1,2-b]pyridazin-6-yl)amino)butanoate] | ≤ 100 nM
CN(CCNc1ccc2ncc(-c3ccc(CN)cc3)n2n1)c1ccccc1 [N1-(3-(4-(aminomethyl)phenyl)imidazo[1,2-b]pyridazin-6-yl)-N2-methyl-N2-phenylethane-1,2-diamine] | ≤ 100 nM
CN(CCCNc1ccc2ncc(-c3ccc(CN)cc3)n2n1)c1ccccc1 [N1-(3-(4-(aminomethyl)phenyl)imidazo[1,2-b]pyridazin-6-yl)-N3-methyl-N3-phenylpropane-1,3-diamine] | ≤ 100 nM
CN(CCCNc1ccc2ncc(-c3ccc(CN)s3)n2n1)c1ccccc1 [N1-(3-(5-(aminomethyl)thiophen-2-yl)imidazo[1,2-b]pyridazin-6-yl)-N3-methyl-N3-phenylpropane-1,3-diamine] | ≤ 1000 nM
CC(C)(C)CCNc1ccc2ncc(-c3ccc(CNCCN)cc3)n2n1 [N1-(4-(6-((3,3-dimethylbutyl)amino)imidazo[1,2-b]pyridazin-3-yl)benzyl)ethane-1,2-diamine] | ≤ 1000 nM
CCCCNc1ccc2ncc(-c3ccc(CNCCN)cc3)n2n1 [N1-(4-(6-(butylamino)imidazo[1,2-b]pyridazin-3-yl)benzyl)ethane-1,2-diamine] | ≤ 1000 nM
CCCCNc1ccc2ncc(-c3ccc(CNCCCN)cc3)n2n1 [N1-(4-(6-(butylamino)imidazo[1,2-b]pyridazin-3-yl)benzyl)propane-1,3-diamine] | ≤ 1000 nM
CN(CCNc1ccc2ncc(-c3ccc(C#N)cc3)n2n1)C(=O)CC(C)(C)C [N-(2-((3-(4-cyanophenyl)imidazo[1,2-b]pyridazin-6-yl)amino)ethyl)-N,3,3-trimethylbutanamide] | ≤ 100 nM
CN(CCNc1ccc2ncc(-c3ccc(C#N)cc3)n2n1)C(=O)C(C)(C)C [N-(2-((3-(4-cyanophenyl)imidazo[1,2-b]pyridazin-6-yl)amino)ethyl)-N-methylpivalamide] | ≤ 100 nM
COc1ncccc1-c1cnc2ccc(NCCOC3CCCC3)nn12 [N-(2-(cyclopentyloxy)ethyl)-3-(2-methoxypyridin-3-yl)imidazo[1,2-b]pyridazin-6-amine] | ≤ 100 nM
Fc1cnccc1-c1cnc2ccc(NCCOC3CCCC3)nn12 [N-(2-(cyclopentyloxy)ethyl)-3-(3-fluoropyridin-4-yl)imidazo[1,2-b]pyridazin-6-amine] | ≤ 100 nM
COc1cnccc1-c1cnc2ccc(NCCOC3CCCC3)nn12 [N-(2-(cyclopentyloxy)ethyl)-3-(3-methoxypyridin-4-yl)imidazo[1,2-b]pyridazin-6-amine] | ≤ 1000 nM
c1cc(C2CCCN2)ccc1-c1cnc2ccc(NCCOC3CCCC3)nn12 (centres unmarked) [N-(2-(cyclopentyloxy)ethyl)-3-(4-(pyrrolidin-2-yl)phenyl)imidazo[1,2-b]pyridazin-6-amine] | ≤ 100 nM
CCN(CC)CCNC(=O)c1ccc(-c2cnc3ccc(NCCOCC(C)C)nn23)cc1 [N-(2-(diethylamino)ethyl)-4-(6-((2-isobutoxyethyl)amino)imidazo[1,2-b]pyridazin-3-yl)benzamide] | ≤ 100 nM
CCN(CC)CCNC(=O)c1ccc(-c2cnc3ccc(NCCOC(C)C)nn23)cc1 [N-(2-(diethylamino)ethyl)-4-(6-((2-isopropoxyethyl)amino)imidazo[1,2-b]pyridazin-3-yl)benzamide] | ≤ 100 nM

More lines, now with the values ahead:

IC50 | Compound
≤ 10 nM | COc1ccccc1-c1cnc2ccc(NC[C@@H]3CCCN3C(=O)OC(C)C)nn12 [(S)-isopropyl 2-(((3-(2-methoxyphenyl)imidazo[1,2-b]pyridazin-6-yl)amino)methyl)pyrrolidine-1-carboxylate]
≤ 10 nM | COc1cnccc1-c1cnc2ccc(NC[C@@H]3CCCN3C(=O)OC(C)C)nn12 [(S)-isopropyl 2-(((3-(3-methoxypyridin-4-yl)imidazo[1,2-b]pyridazin-6-yl)amino)methyl)pyrrolidine-1-carboxylate]
≤ 10 nM | CC(C)OC(=O)N1CCC[C@H]1CNc1ccc2ncc(-c3ccc(CN)cc3)n2n1 [(S)-isopropyl 2-(((3-(4-(aminomethyl)phenyl)imidazo[1,2-b]pyridazin-6-yl)amino)methyl)pyrrolidine-1-carboxylate]
≤ 100 nM | C=C(C)c1cnc2ccc(NC[C@@H]3CCCN3C(=O)OC(C)C)nn12 [(S)-isopropyl 2-(((3-(prop-1-en-2-yl)imidazo[1,2-b]pyridazin-6-yl)amino)methyl)pyrrolidine-1-carboxylate]
≤ 1000 nM | CC(C)OC(=O)N1CCC[C@H]1CNc1ccc2ncc(Br)n2n1 [(S)-isopropyl 2-(((3-bromoimidazo[1,2-b]pyridazin-6-yl)amino)methyl)pyrrolidine-1-carboxylate]
≤ 1000 nM | CC(C)OC(=O)N1CCC[C@H]1CNc1ccc2ncc(C3CC3)n2n1 [(S)-isopropyl 2-(((3-cyclopropylimidazo[1,2-b]pyridazin-6-yl)amino)methyl)pyrrolidine-1-carboxylate]
≤ 10 nM | C=Cc1cnc2ccc(NC[C@@H]3CCCN3C(=O)OC(C)C)nn12 [(S)-isopropyl 2-(((3-vinylimidazo[1,2-b]pyridazin-6-yl)amino)methyl)pyrrolidine-1-carboxylate]
≤ 100 nM | COC(=O)N1CCC[C@H]1CNc1ccc2ncc(-c3ccccc3OC)n2n1 [(S)-methyl 2-(((3-(2-methoxyphenyl)imidazo[1,2-b]pyridazin-6-yl)amino)methyl)pyrrolidine-1-carboxylate]
≤ 100 nM | COC(=O)N1CCC[C@H]1CNc1ccc2ncc(-c3ccncc3OC)n2n1 [(S)-methyl 2-(((3-(3-methoxypyridin-4-yl)imidazo[1,2-b]pyridazin-6-yl)amino)methyl)pyrrolidine-1-carboxylate]
≤ 100 nM | COC(=O)N1CCC[C@H]1CNc1ccc2ncc(-c3ccc(CN)cc3)n2n1 [(S)-methyl 2-(((3-(4-(aminomethyl)phenyl)imidazo[1,2-b]pyridazin-6-yl)amino)methyl)pyrrolidine-1-carboxylate]
≤ 1000 nM | COC(=O)N1CCC[C@H]1CNc1ccc2ncc(Br)n2n1 [(S)-methyl 2-(((3-bromoimidazo[1,2-b]pyridazin-6-yl)amino)methyl)pyrrolidine-1-carboxylate]
≤ 100 nM | CC(C)(C)COC(=O)N1CCC[C@H]1CNc1ccc2ncc(Br)n2n1 [(S)-neopentyl 2-(((3-bromoimidazo[1,2-b]pyridazin-6-yl)amino)methyl)pyrrolidine-1-carboxylate]
≤ 10 nM | COc1ccccc1-c1cnc2ccc(NC[C@@H]3CCCN3C(=O)OC(C)(C)C)nn12 [(S)-tert-butyl 2-(((3-(2-methoxyphenyl)imidazo[1,2-b]pyridazin-6-yl)amino)methyl)pyrrolidine-1-carboxylate]
≤ 10 nM | CC(C)(C)OC(=O)N1CCCC[C@H]1CNc1ccc2ncc(-c3ccc(CN)cc3)n2n1 [(S)-tert-butyl 2-(((3-(4-(aminomethyl)phenyl)imidazo[1,2-b]pyridazin-6-yl)amino)methyl)piperidine-1-carboxylate]
≤ 100 nM | CC(C)(C)OC(=O)N1CCCC[C@H]1CNc1ccc2ncc(-c3ccncc3)n2n1 [(S)-tert-butyl 2-(((3-(pyridin-4-yl)imidazo[1,2-b]pyridazin-6-yl)amino)methyl)piperidine-1-carboxylate]
≤ 100 nM | CC(C)(C)OC(=O)N1CCC[C@H]1CNc1ccc2ncc(C(F)(F)F)n2n1 [(S)-tert-butyl 2-(((3-(trifluoromethyl)imidazo[1,2-b]pyridazin-6-yl)amino)methyl)pyrrolidine-1-carboxylate]
≤ 100 nM | CC(C)(C)OC(=O)N1CCC[C@H]1CNc1ccc2ncc(Br)n2n1 [(S)-tert-butyl 2-(((3-bromoimidazo[1,2-b]pyridazin-6-yl)amino)methyl)pyrrolidine-1-carboxylate]
≤ 100 nM | CC(C)(C)OC(=O)N1CCC[C@H]1CNc1ccc2ncc(Cl)n2n1 [(S)-tert-butyl 2-(((3-chloroimidazo[1,2-b]pyridazin-6-yl)amino)methyl)pyrrolidine-1-carboxylate]
≤ 100 nM | CCc1cnc2ccc(NC[C@@H]3CCCN3C(=O)OC(C)(C)C)nn12 [(S)-tert-butyl 2-(((3-ethylimidazo[1,2-b]pyridazin-6-yl)amino)methyl)pyrrolidine-1-carboxylate]
≤ 10 nM | CC(C)(C)OC(=O)N1CCC[C@H]1CNc1ccc2ncc(I)n2n1 [(S)-tert-butyl 2-(((3-iodoimidazo[1,2-b]pyridazin-6-yl)amino)methyl)pyrrolidine-1-carboxylate]
